Measurements as given in patent US6716812B1, “Modulation of sperm function” (priority 1998, dated 2004).
Positions of bridges follow the written chain, without caps; N, C: chain ends. Non-standard residues stand in square brackets, D forms with d. Residues, ends and D or L forms follow the SMILES beside them. No end group written: not given here. pGlu = O=C1CC[C@@H](C(=O)O)N1

Experiments:
capacitated mouse sperm = assay: Spontaneous acrosome loss in capacitated suspensions (CTC); type: cell-based; settings: for incidence of spontaneously acrosome-reacted sperm vs untreated control: 40 min after 90 min capacitation
Experimental: (§1) Chlortetracycline (CTC) fluorescence analysis was carried out as described by Green et al. (1994). Assessments were made on an Olympus BX40 microscope equipped with phase contrast and BX-FLA epifluorescence optics using the wide blue-violet excitation cube (U-MWBV). The excitation beam passed through a 400-440 nm band pass filter and CTC fluorescence was observed through a DM 455 dichroic mirror. In each sample, at least 100 sperm were classified as expressing one of three patterns: F, with fluorescence over the entire head, a pattern characteristic of uncapacitated (non-fertilizing), acrosome-intact sperm; B, with a fluorescence-free band in the postacrosomal region, a pattern characteristic of capacitated (potentially fertilizing), acrosome-intact sperm; AR, with dull or absent fluorescence over the whole head, a pattern characteristic of acrosome-reacted (non-fertilizing) sperm.
Sperm suspensions were prepared as described earlier for CTC analysis and incubated for 90 min to allow capacitation. Suspensions were then filtered to remove non-motile cells and a sample was stained with CTC (Con-90). The remaining suspension was aliquotted out to different treatment groups and treated for 40 min with nothing (Con-130), 100 nM FPP (positive control), 100 nM FPP+100 ng/ml pertussis toxin (F+PT, negative control), 5 ng/ml salmon calcitonin (CT) and 5 ng/ml salmon calcitonin+100 ng/ml pertussis toxin (CT+PT); (n=3).

[1] = test system: uncapacitated mouse sperm; assay: Chlortetracycline (CTC) fluorescence analysis of capacitation in uncapacitated sperm; type: cell-based; settings: 40 min incubation
Experimental: The contents of cauda epididymides (3-4 cauda per ml of medium) from mature TO male mice (Harlan Olac, Bicester, U.K.) were released into 2 ml modified Tyrode's medium (Fraser, 1993) in 30 mm sterile culture dishes and allowed to disperse for 5 min. For studies on uncapacitated sperm, suspensions were then filtered through short columns of Sephadex G-25 (medium grade; Pharmacia, Uppsala, Sweden) to remove non-motile cells. Filtered suspensions were aliquotted out to different treatment groups, treated with nothing (control), calcitonin or FPP (as a positive control) and then incubated for 40 min. Salmon calcitonin was used at a final concentration of 5 ng/ml, human calcitonin was used at 200 ng/ml and 20 ng/ml and FPP was used at 100 nM. These short-term incubations were carried out in 0.5 ml plastic microcentrifuge tubes at 37° C. in an atmosphere of 5% CO2, 5% O2, 90% N2. […] Three replicate experiments using uncapacitated sperm were carried out using salmon calcitonin and the higher concentration of human calcitonin (n=3); for the lower concentration of the human hormone, n=2.
as §1

[2] = test system: uncapacitated mouse sperm suspensions; assay: In vitro fertilization analysis; type: cell-based; settings: 40 min preincubation, 65 min coincubation
Experimental: The contents of the cauda epididymides from 2 mature TO male mice were released into 2 ml modified Tyrode's medium in 30 mm sterile culture dishes and allowed to disperse for 5 min. Suspensions were then divided into 3 treatment groups, each in a 30 mm sterile dishes, and treated with nothing (Control) or with calcitonin. As in the CTC experiments, salmon calcitonin was used at a final concentration of 5 ng/ml and human calcitonin at 200 ng/ml. Each suspension was overlaid with autoclaved liquid paraffin and incubated for 40 min at 37° C. in an atmosphere of 5% O2, 5% CO2, 90% N2.
Mature female TO mice were induced to superovulate by intraperitoneal injections of 7.5 IU equine chorionic gonadotrophin and approximately 50 hr later with 5 IU human chorionic gonadotrophin (hCG). Approximately 15 hr post-hCG, oviducts were removed and cumulus masses containing the oocytes were released into medium covered with liquid paraffin. Preincubated sperm suspensions were diluted ^˜10 fold into medium of the same composition used for initial incubation (i.e., without or with calcitonin); 400 μl of diluted suspension were transferred to culture dishes, covered with liquid paraffin and oocytes were added. […]
Oocytes were stained with 0.75% aceto orcein, mounted and assessed (Fraser, 1993). […]

human sperm [3] = settings: some (higher) concentrations; Gnessi et al, 1984; cited from earlier work
mouse sperm = assay: Subjective motility evaluation; type: cell-based; settings: judged subjectively; concentrations as in the CTC experiments
Source text: In all experiments, a drop of each suspension was examined briefly for subjective motility evaluation.

human sperm [4] = settings: Green et al., 1996; cited from earlier work
[5] = pertussis toxin at 100 ng/ml, 40 min

Compound: pertussis toxin
- effect on the response (inhibition of spontaneous acrosome loss) to 5 ng/ml salmon calcitonin (capacitated mouse sperm; [5]): abolished the responses
- effect on the response (inhibition of spontaneous acrosome loss) to 100 nM FPP (capacitated mouse sperm; [5]): abolished the responses

Compound: human calcitonin: 32-amino acid hypocalcemic hormone of human origin (CGNLSTCMLGTYTQDFNKFHTFPQTAIGVGAP-NH2; disulfide 1-7; ends not checked; UniProt P01258 85-116, looked up)
- proportion of F pattern cells (uncapacitated, non-fertilizing) vs untreated ([1]; 20 ng/ml): significantly lower proportion
- proportion of B pattern cells (capacitated, potentially fertilizing) vs untreated ([1]; 20 ng/ml, P<0.025, n=2): significantly higher proportion
- proportion of F pattern cells (uncapacitated, non-fertilizing) vs untreated ([1]; 200 ng/ml): significantly lower proportion
- proportion of B pattern cells (capacitated, potentially fertilizing) vs untreated ([1]; 200 ng/ml, P<0.01, n=3): significantly higher proportion
- fertilized oocytes obtained vs untreated control sperm ([2]; 200 ng/ml, P<0.05, n=4): significantly more fertilized oocytes
- effect on human sperm motility (human sperm [3]): not

Compound: calcitonin
- sperm motility vs untreated controls (mouse sperm): more active motility

Compound: salmon calcitonin
- proportion of F pattern cells (uncapacitated, non-fertilizing) vs untreated ([1]; 5 ng/ml): significantly lower proportion
- proportion of B pattern cells (capacitated, potentially fertilizing) vs untreated ([1]; 5 ng/ml, P<0.01, n=3): significantly higher proportion
- fertilized oocytes obtained vs untreated control sperm ([2]; 5 ng/ml, P<0.025, n=4): significantly more fertilized oocytes
- incidence of spontaneously acrosome-reacted sperm vs untreated control (capacitated mouse sperm; 5 ng/ml, P<0.01, n=3): significantly lower incidence
- effect on human sperm motility (human sperm [3]): negative effect

Compound: NC(=O)[C@@H]1CCCN1C(=O)[C@H](CCC(=O)O)NC(=O)[C@@H]1CCC(=O)N1 [FPP, pyroglutamylglutamylprolineamide] ([pGlu]-Glu-Pro-NH2)
- proportion of F pattern cells (uncapacitated, non-fertilizing) vs untreated ([1]; 100 nM): significantly lower proportion
- proportion of B pattern cells (capacitated, potentially fertilizing) vs untreated ([1]; 100 nM, P<0.01, positive control): significantly higher proportion
- incidence of spontaneously acrosome-reacted sperm vs untreated control (capacitated mouse sperm; 100 nM, P<0.01, n=3, positive control): significantly lower incidence
- sperm motility vs untreated controls (mouse sperm): more active motility
- human sperm fertilizing ability (human sperm [4]): stimulate human sperm fertilizing ability
